Consider 22 molecules from patent US6472526B1, “Imidazole derivatives having an inhibitory activity for farnesyl transferase and process for preparation thereof” (LG Chemical Ltd., priority 1997, dated 2002).

Assay [1] has as its target T1, Ras farnesyl transferase (Rattus norvegicus, UniProt Q02293+Q04631).
T1 construct: endogenous in cells; host or cells: Rat2 fibroblasts transformed with H-Ras or with an H-Ras/K-Ras C-terminus fusion
Put plainly: In vivo (cellular) inhibitory activity for Ras farnesyl transferase, Rat2 cell line transformed with fused protein of H-Ras substituted with polybasic lysine domain at C-terminus of K-Ras. The assay is classed as cell-based. The following applies: Rat2 cell line transformed with H-Ras fused with polybasic lysine domain of K-Ras C-terminus; concentration inhibiting 50% of farnesyl bonding; read-out: K-Ras CIC50. The procedure:
(§1) In the present experiment, Rat2 cell line which expresses C-Harvey-Ras protein having transforming activity and Rat2 cell line (Korean patent application No. 97-14409) which is transformed with fused protein of H-Ras substituted with polybasic lysine domain at C-terminus of K-Ras were used. The experiment was performed by the modified Declue's method (Declue. J. E. et al., Cancer Research, 1991, 51, 712). Hereinafter, the experimental method will be described in more detail.
(§2) 3×10^5 cells of transformed Rat2 fibroblast cell line were sprayed on 60 mm cell cultivation dish and cultivated for 48 hours in a cell incubator at 37° C. and after 50% or more of density was reached, it was treated with the test compounds. The compound according to the present invention dissolved in dimethylsulfoxide (DMSO) was used. 1% concentration of dimethylsulfoxide was used in both control and test groups. After 4 hours from the treatment with the compound, methionine labeled with 150 μCi of radioactive isotope [^35S] per 1 ml of medium was added and after cultivating for 20 hours, the cells were, washed with physiological saline water. The cells were lysed using 1 ml of cold cell lysis buffer solution (50 mM of Sodium HEPES buffer solution containing 5mM of magnesium chloride, 1 mM of DTT, 1% NP 40, 1 mM of EDTA, 1 mM of PMSF, 2 μM of leupeptin, 2 μM of pepstatin A and 2 μM of antipain) and the supernatant wherein the cells were lysed was obtained by high-velocity centrifugation of 12,000 g×5 minutes. The amount of radioisotope in the supernatant was measured and standardized to obtain a quantitative result in immunoprecipitation reaction and then, Y13-259, a monoclonal antibody specifically binding to Ras protein (Furth, M. E. et al., J. Virol, 1982, 43, 294) was added and reacted for 15 hours at 4° C. Protein A(combined with goat anti-murine immunoglobulin antibody)-agarose suspension was added to the solution and reacted for 1 hour at 4° C. and then, to remove the unspecific binding product, immunoprecipitates were washed with a buffer solution (50 mM Tris chloride buffer solution containing 50 mM of sodium chloride, 0.5% of sodium dioxycolate, 0.5% of NP 40 and 0.1% of SDS). The precipitates were added to a buffer solution for electrophoresis and boiled and then, electrophoresis was performed using 13.5% of SDS polyacrylamide gel. After electrophoresis, the gel was fixed and dried. Then, the gel was exposed to X-ray film, developed printed. From the result of the experiment, intensities of band of in combined with or without farnesyl of Ras protein were measured, the concentration of the test compound inhibiting 50% of farnesyl bonding was defined as […], an in vivo Ras farnesyl transferase inhibitory activity.

Assay [2] concerns the target T2, Ras farnesyl transferase (Homo sapiens, UniProt P49354+P49356).
T2 construct: made in house
As to the kind of experiment: In vitro inhibitory activity for Ras farnesyl transferase, H-Ras substrate. The assay is classed as biochemical. The following applies: recombinant farnesyl transferase 4.5 nM, Ras substrate protein 1.5 μM, tritium-farnesylpyrophosphate 0.15 μM, 30 minutes at 37° C.; read-out: H-Ras IC50. As to the method: In the present experiment, Ras farnesyl transferase produced by genetic recombination techniques according to the improved Pompliano's method (Pompliano et al., Biochemistry, 1992, 31, 3800) was used, and Ras substrate (Ras-CVLS) protein described in Korean Patent Appln. No. 97-14409 was used after it has been purified according to the known method (see, Chung et al., Biochimica et Biophysica Acta, 1992, 278, 1129).
The enzyme reaction was performed in 50 μl of 50 mM Sodium HEPES buffer solution containing 25 mM of potassium chloride, 25 mM of magnesium chloride, 10 mM of DTT and 50 μM of zinc chloride. 1.5 μM of Ras substrate protein, 0.15 μM of tritium-farnesylpyrophosphate and 4.5 nM of farnesyl transferase were used.
More specifically, in the initial step, farnesyl transferase was added to the above buffer solution, reaction was maintained for 30 minutes at 37° C. and then the reaction was stopped by adding 1 ml of ethanol solution containing 1M HCl. The formed precipitates were adsorbed to GF/B filter using Hopper harvestor(Hopper #FH 225V) for filter-binding, washed with ethanol, and then radioactivity of the dried filter was measured using LKB β counter. Enzyme titer was measured in the unsaturated state of substrate where the concentrations of Ras substrate protein and farnesyl transferase have quantitative relationship. The compound according to the present invention dissolved in dimethyl sulfoxide (DMSO) was added to the reaction solution in an amount of less than 5% of the total reaction solution, and then the enzyme inhibitory activity thereof was measured. The enzyme inhibitory activity was represented by percentage of the amount of farnesyl incorporated into the Ras substrate protein in the presence of the test compound to that in the absence of the test compound. IC50 of the test compound was defined as the concentration at which 50% of the enzyme activity was inhibited.

Assay [3] deals with T2, Ras farnesyl transferase. As to the kind of experiment: In vitro inhibitory activity for Ras farnesyl transferase, K-Ras substrate. The assay is classed as biochemical. The following applies: in vitro farnesyl transferase assay, K-Ras; read-out: K-Ras IC50.
Assay [4] has as its target T1, Ras farnesyl transferase. As to the kind of experiment: In vivo (cellular) inhibitory activity for Ras farnesyl transferase, Rat2 cell line which expresses C-Harvey-Ras protein. The following applies: Rat2 cell line expressing C-Harvey-Ras; concentration inhibiting 50% of farnesyl bonding of Ras protein; read-out: H-Ras CIC50. The assay is classed as cell-based. As to the method: as §1, §2

Consider “1-(1-Decyl-1H-imidazol-5-yl)methyl-3-[N-(2-methoxyethyl)-N-methyl]carbamoyl-4-(naphthalen-1-yl-1H-pyrrole [Compound 119]”, for which the IC50 at Ras farnesyl transferase [1] was under 30000 nM.
“3-[N-(2-Methoxyethyl)-N-methyl]carbamoyl-4-(naphthalen-1-yl)-1-(1-octyl-1H-imidazol-5-yl)methyl-1H-pyrrole [Compound 118]”: the IC50 on Ras farnesyl transferase [1] was under 40000 nM.
The same measure, in the same setting: as for “3-[N-(2-Methoxyethyl)N-methyl]carbamoyl-4-(naphthalen-1-yl)-1-(1-pentyl-1H-imidazol-5-yl)methyl-1H-pyrrole [Compound 117]”, the figure is under 50000 nM.
On to `COCCN(C)C(=O)c1cn(Cc2cncn2Cc2ccc3c(c2)OCO3)cc1-c1cccc2ccccc12` [Compound 1, 3-[N-(2-Methoxyethyl)-N-methyl]carbamoyl-1-[1-(3,4-methylenedioxybenzyl)-1H-imidazol-5-ylmethyl]-4-(naphthalen-1-yl)-1H-pyrrole], for which the results for the IC50 on Ras farnesyl transferase [2], at Ras farnesyl transferase [3] and on Ras farnesyl transferase [4] were 1.1 nM, 3.5 nM and 25 nM, respectively.
Take `N#Cc1ccc(Cn2cncc2Cn2cc(C(=O)c3ccccc3)c(-c3cccc4ccccc34)c2)cc1` [Compound 75]: the figures for the IC50 at Ras farnesyl transferase [2], on Ras farnesyl transferase [3] and at Ras farnesyl transferase [4] were 5 nM, 160 nM and 200 nM, respectively.
Turning to `N#Cc1ccc(Cn2cncc2Cn2cc(C(=O)c3ccc(Br)cc3)c(-c3cccc4ccccc34)c2)cc1` [Compound 77], the IC50 worked out at 4 nM at Ras farnesyl transferase [2], 120 nM on Ras farnesyl transferase [3] and 100 nM at Ras farnesyl transferase [4].
With `CN1CCN(C(=O)c2cn(Cc3c[nH]cn3)cc2-c2cccc3ccccc23)CC1` [Compound 89], the IC50 is 14 nM at Ras farnesyl transferase [2], 100 to 10000 nM on Ras farnesyl transferase [3] and 10000 to 100000 nM at Ras farnesyl transferase [1].
As for `COCCN(C)C(=O)c1cn(Cc2cncn2Cc2ccc(C#N)cc2)cc1-c1cccc2ccccc12` [Compound 110, 1-[1-(4-Cyanobenzyl)-1H-imidazol-5-yl]methyl-3-[N-(2-methoxyethyl)-N-methyl]carbamoyl-4-(naphthalen-1-yl)-1H-pyrrole], the values for the IC50 on Ras farnesyl transferase [2], on Ras farnesyl transferase [3] and on Ras farnesyl transferase [4] were 0.6 nM, 1.5 nM and 8 nM, respectively.
For `O=C(c1cn(Cc2cncn2Cc2ccc(Br)cc2)cc1-c1cccc2ccccc12)N1CCOCC1` [Compound 112, 1-[1-(4-Bromobenzyl)-1H-imidazol-5-yl]methyl-3-(morpholin-4yl)carbonyl-4-(naphthalen-1-yl)-1H-pyrrole], the IC50 amounted to 4 nM at Ras farnesyl transferase [2], 6 nM on Ras farnesyl transferase [3] and 15 nM on Ras farnesyl transferase [4].
As for `COCCN(C)C(=O)c1cn(Cc2cncn2CCC(C)C)cc1-c1cccc2ccccc12` [Compound 120], at Ras farnesyl transferase [1], the IC50 was under 20000 nM.
As to `COCCN(C)C(=O)c1cn(Cc2cncn2CCOC)cc1-c1cccc2ccccc12` [Compound 121, 1-[1-(2-Methoxyethyl)-1H-imidazol-5-yl]methyl-3-[N-(2-methoxyethyl)-N-methyl]carbamoyl-4-(naphthalen-1-yl)-1H-pyrrole], on Ras farnesyl transferase [1], the IC50 was under 40000 nM.
As for `COCCCn1cncc1Cn1cc(C(=O)N(C)CCOC)c(-c2cccc3ccccc23)c1` [Compound 122], the IC50 on Ras farnesyl transferase [1] is under 30000 nM.
`CCOCCCn1cncc1Cn1cc(C(=O)N(C)CCOC)c(-c2cccc3ccccc23)c1` [Compound 123, 1-[1-(3-Ethoxypropyl)-1H-imidazol-5-yl]methyl-3-[N-(2-methoxyethyl)-N-methyl]carbamoyl-4-(naphthalen-1-yl)-1H-pyrrole]: the IC50 at Ras farnesyl transferase [1] was under 40000 nM.
For the molecule `COCCN(C)C(=O)c1cn(Cc2cncn2CCCOC(C)C)cc1-c1cccc2ccccc12` [Compound 124, 1-[1-(3-Isopropoxypropyl)-1H-imidazol-5-yl]methyl-3-[N-(2-methoxyethyl)-N-methyl]carbamoyl-4(naphthalen-1-yl)-1H-pyrrole], the IC50 at Ras farnesyl transferase [1] is under 20000 nM.
On to `CCOC(=O)c1nc(Cc2cnc[nH]2)sc1-c1cccc2ccccc12` [Compound 144, 4-Ethoxycarbonyl-2-(1H-imidazol-5-ylmethyl)-5-(naphthalen-1-yl)thiazole], for which the IC50 is 380 nM at Ras farnesyl transferase [2] and over 50000 nM on Ras farnesyl transferase [1].
Regarding `O=C(c1nc(Cc2cncn2Cc2ccc(Cl)cc2)sc1-c1cccc2ccccc12)N1CCOCC1` [Compound 146, 2-[1-(4-Chlorobenzyl)-1H-imidazol-5-ylmethyl]-4-(morpholin-4-yl)carbonyl-5-(naphthalen-1-yl)thiazole], the IC50 at Ras farnesyl transferase [2] turned out to be 90 nM; on Ras farnesyl transferase [3] it was 10000 nM.
Turning to `O=C(c1sc(Cc2cncn2Cc2ccc(Cl)cc2)nc1-c1cccc2ccccc12)N1CCOCC1` [Compound 149, 2-[1-(4-Chlorobenzyl)-1H-imidazol-5-ylmethyl]-5-(morpholin-4-yl)carbonyl-4-(naphthalen-1-yl)thiazole], the figures for the IC50 at Ras farnesyl transferase [2], on Ras farnesyl transferase [3] and on Ras farnesyl transferase [1] were 5000 nM, over 50000 nM and over 50000 nM, respectively.
Take `COCCN(C)C(=O)c1sc(Cc2cncn2CC2CCN(C(=O)OCc3ccccc3)CC2)nc1-c1cccc2ccccc12` [Compound 151]: the IC50 at Ras farnesyl transferase [2] is 4600 nM; at Ras farnesyl transferase [3], over 50000 nM; on Ras farnesyl transferase [1], over 50000 nM.
Take `O=C(OCc1ccccc1)N1CCC(Cn2cncc2Cn2cc(C(=O)N3CCOCC3)c(-c3cccc4ccccc34)n2)CC1` [Compound 158, 1-[1-(1-Benzyloxycarbonyl-piperidin-4-ylmethyl)-1H-imidazol-5-ylmethyl]-4-(morpholin-4-yl)carbonyl-3-(naphthalen-1-yl)-1H-pyrazole]: the IC50 on Ras farnesyl transferase [2] came to 250 nM; at Ras farnesyl transferase [3] it was 2000 nM; at Ras farnesyl transferase [1], 30000 nM.
`O=C(c1cn(Cc2cncn2Cc2ccc(Cl)cc2)nc1-c1cccc2ccccc12)N1CCOCC1` [Compound 161, 1-[1-(4-Chlorobenzyl)-1H-imidazol-5-ylmethyl]-4-(morpholin-4-yl)carbonyl-3-(naphthalen-1-yl)-1H-pyrazole]: the values for the IC50 on Ras farnesyl transferase [2] and on Ras farnesyl transferase [3] were 200 nM and 2000 nM, respectively.
Take `N#Cc1ccc(Cn2cncc2Cn2cc(C(=O)N3CCOCC3)c(-c3cccc4ccccc34)n2)cc1` [Compound 162, 1-[1-(4-Cyanobenzyl)-1H-imidazol-5-ylmethyl]-4-(morpholin-4-yl)carbonyl-3-(naphthalen-1-yl)-1H-pyrazole]: the IC50 is 250 nM on Ras farnesyl transferase [2] and 2000 nM on Ras farnesyl transferase [3].
Take `Cn1cncc1Cn1cc(C(=O)N2CCOCC2)c(-c2cccc3ccccc23)n1` [Compound 163, 1-(1-Methyl-1H-imidazol-5-ylmethyl)-4-(morpholin-4-yl)carbonyl-3-(naphthalen-1-yl)-1H-pyrazole]: the IC50 on Ras farnesyl transferase [2] is 150 nM; on Ras farnesyl transferase [3], 10000 nM; at Ras farnesyl transferase [1], over 50000 nM.
